Consider 22 compounds from US9682955B2, “Quinazoline derivatives useful as CB-1 inverse agonists” (Janssen Pharmaceutica NV, priority 2014, dated 2017).

In general, pEC50 refers to the EC50 on a negative log10 scale, so that one unit is a factor of ten. Read a high pEC50 as a low EC50.

Structures are written as SMILES. pEC50: −log10 of the molar value.

Assay [1] has as its target Human CB1R (Cannabanoid receptor 1) (Homo sapiens (Human), UniProt P21554). The assay is described as follows: CB-1 in vitro cAMP assay (HTRF). The format is cell-based. Conditions: mean where tested more than once. The source says: (§1) CB1 and CB2 receptors are Gi-coupled GPCR. Activation of CB1 and CB2 receptors results in a decrease in cAMP production. An inverse agonist of the CB1 or CB2 receptor results in the opposite effect, an increase of cAMP production. The principle of this assay is based on HTRF® technology (Homogeneous Time-Resolved Fluorescence). The method is a competitive immunoassay between native cAMP produced by cells and the cAMP labeled with the fluorophore d2. The tracer binding is quantified by a Mab anti-cAMP labeled with Eu3+TBP-NHS Cryptate (supplied as part of the assay kit). The specific signal (i.e. energy transfer) is inversely proportional to the concentration of cAMP in the standard or sample.
(§2) Human CB1R (Cannabanoid receptor 1) was stably transfected in HEK-293 cells (DiscoveRx, cat: 93-0200C1). Human CB2R (Cannabanoid receptor 2) was stably transfected in HEK-293 cells (DiscoveRx, cat: 93-0201C1). Cell cultures were maintained in media: DMEM (Invitrogen Cat#12430-054) supplemented with 10% HI FBS (Invitrogen Cat#16140-071), 1% L-glutamine (Invitrogen Cat#25030-081), 0.2 mg/ml Hygromycin B (Invitrogen Cat#10687-010), 600 μg/mL G418 (Invitrogen Cat#10131-035), and 1× Penn/Strep (Invitrogen 15140-122). After cell expansion, aliquots were cryo-stored in media containing 5% DMSO (Pierce Cat#20684).
(§3) One day prior to experiments media was warmed to 37° C. and the cryo-stored cells were thawed in a 37° C. water bath. The cells were then added to media (10× volume) and the mixture was centrifugated at 1000 RPM for 5 min. The supernate was removed and the cells were re-suspended in media. A sample of the cell suspension was evaluated on a Cedex XS automated cell counter (Innovatis Systems) to determine viable cells/ml. Additional media was added to the cells to achieve a final cell density of 4E5 cells/mL. The cells were then plated into 384 well PDL white solid bottom plates (Greiner, Cat#781945) at 20 μL per well using a Multidrop (Thermo Scientific). Cells were removed from Row P (location of cAMP standards). Two columns of cells were plated into a clear bottom 384 well PDL coated plate (Greiner, Cat#781944) to view confluence the day of the assay. The cell plates were lidded and stored for 15 minutes in a hood, then transferred to an incubator (37° C., 5% CO2, 95% humidity) overnight.
(§4) DMSO was added to all wells of 384 well V bottom polystyrene plate (Greiner, Cat#781280) except to columns 1 and 13, rows O and P and wells M13-M23 and N13-N23. Test compounds (60 μL, 10 mM) were added to Column 1 and 13 (A1 through N1 and A13 through L13). Test compounds were serially diluted 1/3 by transferring and mixing 20 μl sample with 40 μL DMSO.
(§5) DMSO (40 μL) was added to wells of 384 well V bottom polystyrene plate: O2 through O11, M14 through M23, N14 through N23, and O14 through O23. AM630 (also known as [6-iodo-2-methyl-1-[2-(4-morpholinyl)ethyl]-1H-indol-3-yl](4-methoxyphenyl)-methanone, Cayman Chemical, Cat#10006974) (60 μL, 10 mM) was added to O1; and 1-(2,4-dichlorophenyl)-7-[(4-fluorophenyl)methylene]-4,5,6,7-tetrahydro-N-1-piperidinyl-1H-indazole-3-carboxamide (60 μL, 10 mM) was added to N13. The control was serially diluted 1/3 by transferring and mixing 20 μl sample with 40 μL DMSO. This process resulted 11 doses per control, 10 mM to […].
(§6) Cells plated the day prior to the assay in clear bottom plates were viewed on an inverse microscope to ensure confluency in the range of 60-75%. […]
Background: Changes in cAMP serve as a functional read-out for many G protein-coupled receptors.

Assay [2] addresses Human CB2R (Cannabanoid receptor 2) (Homo sapiens (Human), UniProt P34972). Put plainly: CB-2 in vitro cAMP assay (HTRF). The class given is cell-based. As to conditions: mean where tested more than once.
Excerpt: as §1, §2, §3, §4, §5, §6

Human CB2R (Cannabanoid receptor 2), sequence (P34972 whole entry): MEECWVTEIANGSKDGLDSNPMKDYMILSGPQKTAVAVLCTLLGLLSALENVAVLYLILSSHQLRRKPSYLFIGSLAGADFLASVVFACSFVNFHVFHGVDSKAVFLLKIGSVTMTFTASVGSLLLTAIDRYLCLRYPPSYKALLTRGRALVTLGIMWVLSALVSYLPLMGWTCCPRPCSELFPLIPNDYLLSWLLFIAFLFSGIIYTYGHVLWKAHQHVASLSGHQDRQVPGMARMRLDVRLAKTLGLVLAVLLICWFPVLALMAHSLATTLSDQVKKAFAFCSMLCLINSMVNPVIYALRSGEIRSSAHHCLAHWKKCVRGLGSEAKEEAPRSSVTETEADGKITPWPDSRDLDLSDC
Human CB1R (Cannabanoid receptor 1), sequence (P21554 whole entry): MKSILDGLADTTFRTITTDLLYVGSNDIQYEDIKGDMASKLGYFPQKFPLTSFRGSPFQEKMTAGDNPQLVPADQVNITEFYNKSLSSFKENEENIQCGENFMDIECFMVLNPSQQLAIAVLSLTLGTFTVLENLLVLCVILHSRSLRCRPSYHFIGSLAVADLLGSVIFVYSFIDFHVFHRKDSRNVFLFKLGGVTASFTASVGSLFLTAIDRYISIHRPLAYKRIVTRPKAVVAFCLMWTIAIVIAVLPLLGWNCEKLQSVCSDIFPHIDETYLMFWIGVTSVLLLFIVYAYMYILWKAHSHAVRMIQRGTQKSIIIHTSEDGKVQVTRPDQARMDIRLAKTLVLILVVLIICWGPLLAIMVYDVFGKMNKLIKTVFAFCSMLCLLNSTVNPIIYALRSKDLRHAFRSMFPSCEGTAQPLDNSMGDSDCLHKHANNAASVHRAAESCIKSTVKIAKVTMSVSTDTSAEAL

With `C[C@H](Nc1ncnc2ccc(C(c3ccc(Cl)cc3)c3ccc(Cl)cc3)cc12)c1cccc(C(F)(F)F)c1` (single isomer, unassigned) [Compound #112], the pEC50 was 8.00 in assay [1] and 5.33 in assay [2].
For `C[C@@H](Nc1ncnc2ccc(C(c3ccc(Cl)cc3)c3ccc(Cl)cc3)cc12)c1cccc(C(F)(F)F)c1` (single isomer, unassigned) [compound 115] the same measures were 7.47 and 5.09.
The matching figures for `O=S(=O)(N1CCC(Nc2nc(Cl)nc3ccc(C(c4ccc(Cl)cc4)c4ccc(Cl)cc4)cc23)CC1)C(F)(F)F` [Compound 200]: 8.05 and 5.19.
Turning to `O=C(O)c1cccc(CCNc2ncnc3ccc(C(c4ccc(Cl)cc4)c4ccc(Cl)cc4)cc23)c1` [Compound #2, 3-(2-((6-(bis(4-chlorophenyl)methyl)quinazolin-4-yl)amino)ethyl)benzoic acid], the negative-log EC50 (pEC50) in assay [1] is 6.49; in assay [2] it was 5.98.
Regarding `O=C(O)COc1ccc(S(=O)(=O)N2CCC(Nc3ncnc4ccc(C(c5ccc(Cl)cc5)c5ccc(Cl)cc5)cc34)CC2)cc1` [Compound #3, 2-(4-((4-((6-(bis(4-chlorophenyl)methyl)quinazolin-4-yl)amino)piperidin-1-yl)sulfonyl)phenoxy)acetic acid], the pEC50 in assay [1] is 7.01; in assay [2] it was 5.46.
For `CCOC(=O)COc1ccc(S(=O)(=O)N2CCC(Nc3ncnc4ccc(C(c5ccc(Cl)cc5)c5ccc(Cl)cc5)cc34)CC2)cc1` [Compound #4, Ethyl 2-(4-((4-((6-(bis(4-chlorophenyl)methyl)quinazolin-4-yl)amino)piperidin-1-yl)sulfonyl)phenoxy)acetate] the same measures were 8.05 and 6.77.
The matching figures for `O=S1(=O)CCN(CCNc2ncnc3ccc(C(c4ccc(Cl)cc4)c4ccc(Cl)cc4)cc23)CC1` [Compound #6, 4-(2-((6-(bis(4-chlorophenyl)methyl)quinazolin-4-yl)amino)ethyl)thiomorpholine 1,1-dioxide]: 7.46 and 6.34.
With `O=S(=O)(c1ccc(O)cc1)N1CCC(Nc2ncnc3ccc(C(c4ccc(Cl)cc4)c4ccc(Cl)cc4)cc23)CC1` [Compound #8], the values for the negative-log EC50 (pEC50) in assay [1] and in assay [2] were 8.10 and 6.61, respectively.
For `O=S(=O)(NC1CCN(c2ncnc3ccc(C(c4ccc(Cl)cc4)c4ccc(Cl)cc4)cc23)C1)C(F)(F)F` (centres unmarked) [Compound #9, N-(1-(6-(bis(4-chlorophenyl)methyl)quinazolin-4-yl)pyrrolidin-3-yl)trifluoromethanesulfonamide] the same measures were 6.72 and 6.82.
The matching figures for `O=C(O)c1ccc(CCN2CCC(Nc3ncnc4ccc(C(c5ccc(Cl)cc5)c5ccc(Cl)cc5)cc34)CC2)cc1` [Compound #10, 4-(2-(4-((6-(bis(4-chlorophenyl)methyl)quinazolin-4-yl)amino)piperidin-1-yl)ethyl)benzoic acid]: 6.05 and 6.00.
On to `Clc1ccc(C(c2ccc(Cl)cc2)c2ccc3ncnc(NC4CCN(CCc5ccccc5)CC4)c3c2)cc1` [Compound #11, 6-(bis(4-chlorophenyl)methyl)-N-(1-phenethylpiperidin-4-yl)quinazolin-4-amine], for which the results for the pEC50 in assay [1] and in assay [2] were 6.91 and under 5.00, respectively.
The matching figures for `O=C(O)c1cccc(CCN2CCC(Nc3ncnc4ccc(C(c5ccc(Cl)cc5)c5ccc(Cl)cc5)cc34)CC2)c1` [Compound #13, 3-(2-(4-(6-(bis(4-chlorophenyl)methyl)quinazolin-4-ylamino)piperidin-1-yl)ethyl)benzoic acid]: 5.91 and 5.52.
The matching figures for `O=C(O)c1ccc(CN2CCC(Nc3ncnc4ccc(C(c5ccc(Cl)cc5)c5ccc(Cl)cc5)cc34)C2)cc1` (centres unmarked) [Compound #14, 4-((3-((6-(bis(4-chlorophenyl)methyl)quinazolin-4-yl)amino)pyrrolidin-1-yl)methyl)benzoic acid]: 5.95 and 5.06.
For `O=C(O)c1ccc(C(c2ccc(Cl)cc2)c2ccc3ncnc(NC4CCN(S(=O)(=O)C(F)(F)F)CC4)c3c2)cc1` (centres unmarked) [Compound #16, 4-((4-chlorophenyl)(4-((1-((trifluoromethyl)sulfonyl)piperidin-4-yl)amino)quinazolin-6-yl)methyl)benzoic acid] the same measures were 6.46 and under 5.00.
Take `O=C(O)c1csc(CN2CCC(Nc3ncnc4ccc(C(c5ccc(Cl)cc5)c5ccc(Cl)cc5)cc34)CC2)c1` [Compound #18, 5-((4-((6-(bis(4-chlorophenyl)methyl)quinazolin-4-yl)amino)piperidin-1-yl)methyl)thiophene-3-carboxylic acid]: the negative-log EC50 (pEC50) in assay [1] was 6.78; in assay [2] it was 5.20.
As for `N#Cc1ccc(C(c2ccc(Cl)cc2)c2ccc3ncnc(NC4CCN(S(=O)(=O)C(F)(F)F)CC4)c3c2)cc1` (centres unmarked) [Compound #19, 4-((4-chlorophenyl)(4-((1-((trifluoromethyl)sulfonyl)piperidin-4-yl)amino)quinazolin-6-yl)methyl)benzonitrile], the negative-log EC50 (pEC50) in assay [1] is 8.22; in assay [2] it was 6.80.
As for `O=S(=O)(N1CCC(Nc2ncnc3ccc(C(c4ccc(Cl)cc4)c4ccc(Br)cc4)cc23)CC1)C(F)(F)F` (centres unmarked) [Compound #20, 6-((4-bromophenyl)(4-chlorophenyl)methyl)-N-(1-((trifluoromethyl)sulfonyl)piperidin-4-yl)quinazolin-4-amine], the negative logarithm of the EC50 (pEC50) in assay [1] is 7.77; in assay [2], 6.66.
For `COc1cc(S(=O)(=O)N2CCC(Nc3ncnc4ccc(C(c5ccc(Cl)cc5)c5ccc(Cl)cc5)cc34)CC2)ccc1C(=O)O` [Compound #22, 4-((4-((6-(bis(4-chlorophenyl)methyl)quinazolin-4-yl)amino)piperidin-1-yl)sulfonyl)-2-methoxybenzoic acid] the same measures were 7.64 and 6.55.
On to `O=C(O)c1ccc(S(=O)(=O)N2CCC(Nc3ncnc4ccc(C(c5ccc(Cl)cc5)c5ccc(Cl)cc5)cc34)CC2)cc1Cl` [Compound #23, 4-((4-((6-(bis(4-chlorophenyl)methyl)quinazolin-4-yl)amino)piperidin-1-yl)sulfonyl)-2-chlorobenzoic acid], for which the pEC50 in assay [1] is 7.72; in assay [2], 6.36.
Regarding `O=C(O)c1ccc(S(=O)(=O)N2CCC(Nc3ncnc4ccc(C(c5ccc(Cl)cc5)c5ccc(Cl)cc5)cc34)CC2)s1` [Compound #25, 5-((4-((6-(bis(4-chlorophenyl)methyl)quinazolin-4-yl)amino)piperidin-1-yl)sulfonyl)thiophene-2-carboxylic acid], the pEC50 was 8.05 in assay [1] and 6.56 in assay [2].
For `O=C(NCCCOc1ccc(CO)cc1)c1ccc(S(=O)(=O)N2CCC(Nc3ncnc4ccc(C(c5ccc(Cl)cc5)c5ccc(Cl)cc5)cc34)CC2)cc1` [Compound #26, 4-((4-((6-(bis(4-chlorophenyl)methyl)quinazolin-4-yl)amino)piperidin-1-yl)sulfonyl)-N-(3-(4-(hydroxymethyl)phenoxy)propyl)benzamide] the same measures were 7.70 and under 5.00.
For `Oc1cccc(CN2CCC(Nc3ncnc4ccc(C(c5ccc(Cl)cc5)c5ccc(Cl)cc5)cc34)CC2)c1` [Compound #28, 3-((4-((6-(bis(4-chlorophenyl)methyl)quinazolin-4-yl)amino)piperidin-1-yl)methyl)phenol] the same measures were 7.16 and under 5.00.
